{"source": "patent US10064858B2", "about": "“Methods and compositions for treating bacterial infections with iron chelators” (THE UNITED STATES OF AMERICA, AS REPRESENTED BY THE …, priority 2011, dated 2018)", "format_in_all_cases": "cell-based", "key": {"[1]": {"system": "AB5075, a stain of A. baumannii (Ab)", "assay": "Development of rifampin resistance over 7 days (OD600)", "details": "ApoL1 in combination with rifampin; 7 days", "description": "Development of antibiotic-resistant strains is an ongoing problem in the treatment of bacterial infections. In some embodiments, the present technology provides methods and compositions for reducing, inhibiting or preventing formation of antibiotic-resistant bacterial strains. In some embodiments, the iron chelator of the present technology is administered to a patient as a prophylactic before antibiotic treatment or during antibiotic treatment. In some embodiments, the iron chelator is added concurrently with an antibiotic.\nCultures of AB5075, a stain of A. baumannii (Ab), was cultured in the presence of Rifampin alone, the iron chelator ApoL1 alone or Rifampin combination with ApoL1 for 7 days."}, "[2]": {"system": "MR Staphylococcus aureus (MRSA)", "assay": "Growth (OD600) with VK28 in M9 media with magnesium and calcium", "details": "M9 with 2 mM MgSO4 and 1.35 mM CaCl2; 24 hours", "description": "In this example, strains of MR Staphylococcus aureus (MRSA), Acinetobacter baumannii (Acinetobacter), Escherichia coli (E. coli), and Pseudomonas aeruginosa (Pseudomonas) were grown in M9 media in the presence of 2 mM MgSO4 and 1.35 mM CaCl2 for 24 hours in the presence or absence of 0 μg/ml, 50 μg/ml, 100 μg/ml, or 200 μg/ml of VK28. The OD600 was measured at 24 hour and the results are shown in the bar graph of FIG. 21."}, "Pseudomonas aeruginosa": {"system": "Pseudomonas aeruginosa", "assay": "Growth (OD600) of MDR bacteria with VK28 in low-iron M9 media", "details": "200 μM VK28", "description": "(§1) Isolates of Extended Spectrum Beta-Lactamase (ESBL) Escherichia coli, Klebsiella pneumoniae, Pseudomonas aeruginosa, and Methicillin-Resistant Staphylococcus aureus (MRSA) were challenged with either 0 μM, 100 μM or 200 μM VK28 in low-iron M9 media after 4 hr of growth. Growth was estimated by absorbance at 600 nm at 24 hr post inoculation."}, "[3]": {"system": "Methicillin-Resistant Staphylococcus aureus (MRSA)", "assay": "Growth (OD600) of MDR bacteria with VK28 in low-iron M9 media", "details": "both 100 μM and 200 μM VK28", "description": "as §1"}, "Klebsiella pneumoniae": {"system": "Klebsiella pneumoniae", "assay": "Growth (OD600) of MDR bacteria with VK28 in low-iron M9 media", "details": "200 μM VK28", "description": "as §1"}, "[4]": {"system": "Extended Spectrum Beta-Lactamase (ESBL) Escherichia coli", "assay": "Growth (OD600) of MDR bacteria with VK28 in low-iron M9 media", "details": "200 μM VK28", "description": "as §1"}}, "note": "“Also recorded” adds a separate entry of the source.", "data": [{"smiles": "Cc1c(O)c(=O)ccn1C", "note": "[ApoL1, 3-hydroxy-1,2-dimethyl-4(1H)-pyridone]", "values": [{"measurement": "growth of rifampin-resistant strains", "setting": "[1]", "result": "inhibits growth of an antibiotic resistant Ab strain over 7 days; also recorded: inhibition of rifampin-resistant strains of Ab over the 7 days"}]}, {"smiles": "OCCN1CCN(Cc2ccc(O)c3ncccc23)CC1", "note": "[VK28, 5-(4-(2-hydroxyethyl)piperazin-1-ylmethyl)-8-hydroxyquinoline]", "values": [{"measurement": "inhibition of growth (OD600)", "setting": "[2]", "result": "inhibition of growth of a number of strains of bacteria is not reduced in the presence of magnesium and calcium"}, {"measurement": "OD600 at 24 hr post inoculation", "setting": "Pseudomonas aeruginosa", "result": "significantly reduced"}, {"measurement": "OD600 at 24 hr post inoculation", "setting": "[3]", "result": "significantly reduced"}, {"measurement": "growth (OD600) at 24 hr post inoculation", "setting": "Klebsiella pneumoniae", "result": "reduced"}, {"measurement": "growth (OD600) at 24 hr post inoculation", "setting": "[4]", "result": "reduced"}]}]}
